Test results reported in ChEMBL document CHEMBL1201862, “PubChem BioAssay data set” (2004).
Calls of active or inactive are those of the source.

What was measured:
[1] = Vero cell cytotoxicity, cytotoxicity control for M. tuberculosis inhibitor project, purified and synthesized samples, set 3 (AID 504684); type: functional
[2] = THP-1 cell cytotoxicity, cytotoxicity control, set 4 (AID 504911); type: functional; conditions: Mycobacterium tuberculosis
[3] = THP-1 cell cytotoxicity, dose response, cytotoxicity control, set 3 (AID 504852); type: functional; conditions: Mycobacterium tuberculosis
[4] = Vero cell cytotoxicity, dose response, cytotoxicity control for M. tuberculosis growth inhibitor project, Vero cells, purified and synthesized compounds, set 4 (AID 504854); type: functional; conditions: Mycobacterium tuberculosis
[5] = molecular target: Delta-type opioid receptor (Homo sapiens, UniProt P41143); assay: Counterscreen for agonists of heterodimerization of the mu 1 (OPRM1) and delta 1 (OPRD1) opioid receptors: Luminescence-based cell-based high throughput dose response assay to identify agonists of OPRD1 homodimerization. [Related pubchem assays (depositor defined):AID504326, AID504355, AID504692, AID504904, AID504905]; type: functional
[6] = molecular target: Mu-type opioid receptor (Homo sapiens, UniProt P35372); assay: Counterscreen for agonists of heterodimerization of the mu 1 (OPRM1) and delta 1 (OPRD1) opioid receptors: Luminescence-based cell-based high throughput dose response assay to identify agonists of OPRM1 homodimerization.; type: functional;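 further: U2OS cells expressing OPRM1 and beta-arrestin as split beta-galactosidase partners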
[7] = molecular target: 5-hydroxytryptamine receptor 5A (Homo sapiens, UniProt P47898); assay: Counterscreen for agonists of OPRM1-OPRD1 heterodimerization: luminescence-based cell-based high throughput dose response assay to identify agonists of 5-hydroxytryptamine (serotonin) 5A receptor (HTR5A). [Related pubchem assays (depositor defined):AID504326, AID504355, AID504692, AID504904, AID504905]; type: functional
[8] = molecular target: T1, High affinity choline transporter 1 (Homo sapiens, UniProt Q9GZV3); assay: CHT activators, dose response, cell-based, 10-point CRC, membrane potential dye (AID 602376); type: functional
T1 sequence (Q9GZV3 whole entry): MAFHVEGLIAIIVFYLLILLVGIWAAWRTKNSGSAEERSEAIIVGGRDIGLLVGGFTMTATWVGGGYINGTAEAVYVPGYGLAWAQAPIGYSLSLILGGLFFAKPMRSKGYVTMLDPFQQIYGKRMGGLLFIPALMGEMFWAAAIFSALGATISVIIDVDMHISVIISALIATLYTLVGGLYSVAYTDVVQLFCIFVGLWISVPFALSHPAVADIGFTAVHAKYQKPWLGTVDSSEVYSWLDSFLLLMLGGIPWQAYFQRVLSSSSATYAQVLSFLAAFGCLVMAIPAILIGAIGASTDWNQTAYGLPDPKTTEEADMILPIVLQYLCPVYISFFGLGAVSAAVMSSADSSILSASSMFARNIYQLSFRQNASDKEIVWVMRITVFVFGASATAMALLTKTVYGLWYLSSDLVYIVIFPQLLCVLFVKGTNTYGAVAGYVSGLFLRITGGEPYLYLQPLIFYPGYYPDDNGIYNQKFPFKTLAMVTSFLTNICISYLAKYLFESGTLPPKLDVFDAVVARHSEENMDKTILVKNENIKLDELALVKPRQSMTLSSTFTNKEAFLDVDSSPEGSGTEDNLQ

[9] = HEK293T cytotoxicity, dose response, cytotoxicity control for miR-122 modulator project, cell-based, activator set, cherry-pick (AID 720690); type: functional;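 further: HEK293T human cells scored for general mammalian cytotoxicity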
[10] = molecular target: Dual specificity tyrosine-phosphorylation-regulated kinase 1A (Rattus norvegicus, UniProt Q63470); type: biochemical, Homo sapiens
[11] = molecular target: Protein disulfide-isomerase (Homo sapiens, UniProt P07237); assay: PDI inhibitors, insulin aggregation turbidity, dose response, biochemical, absorbance, cherry-picked samples (AID 602350); type: functional
[12] = molecular target: Sphingosine 1-phosphate receptor 2 (Homo sapiens, UniProt O95136); assay: Late-stage fluorescence-based dose-response cell-based counterscreen assay to identify agonists of the Sphingosine 1-Phosphate Receptor 3 (S1P3): Sphingosine 1-Phosphate Receptor 2 (S1P2) agonist assay.; type: functional
[13] = molecular target: Sphingosine 1-phosphate receptor 4 (Homo sapiens, UniProt O95977); assay: Late-stage fluorescence-based dose-response cell-based counterscreen assay to identify agonists of the Sphingosine 1-Phosphate Receptor 3 (S1P3): Sphingosine 1-Phosphate Receptor 4 (S1P4) agonist assay.; type: functional
[14] = molecular target: Tyrosine-protein kinase Lck (Homo sapiens, UniProt P06239); type: functional;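 further: lck was assayed as one member of a kinase panel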
[15] = molecular target: Mast/stem cell growth factor receptor Kit (Homo sapiens, UniProt P10721); type: functional;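 further: KIT entry within a kinase panel assay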
[16] = molecular target: Tyrosine-protein kinase Lyn (Homo sapiens, UniProt P07948); type: functional;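 further: lyn as one member of a kinase panel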
[17] = molecular target: Tyrosine-protein kinase Blk (Homo sapiens, UniProt P51451); type: functional;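 further: obtained as one member of a kinome-wide kinase assay panel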
[18] = molecular target: Proto-oncogene tyrosine-protein kinase Src (Homo sapiens, UniProt P12931); type: functional;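 further: SRC entry within a kinome-wide kinase profiling panel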
[19] = molecular target: Receptor-type tyrosine-protein kinase FLT3 (Homo sapiens, UniProt P36888); type: functional;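 further: FLT3 was tested as one member of a kinome-wide kinase panel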
[20] = molecular target: Tyrosine-protein kinase ABL1 (Homo sapiens, UniProt P00519); type: functional
[21] = molecular target: Vascular endothelial growth factor receptor 2 (Homo sapiens, UniProt P35968); type: functional
[22] = molecular target: Vascular endothelial growth factor receptor 3 (Homo sapiens, UniProt P35916); type: functional;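 further: value from a kinome-wide profiling panel, with FLT4 as the panel member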
[23] = molecular target: Tyrosine-protein kinase Fyn (Homo sapiens, UniProt P06241); type: functional
[24] = molecular target: Vascular endothelial growth factor receptor 1 (Homo sapiens, UniProt P17948); type: functional;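 further: measured within a kinome-wide profiling panel, FLT1 as the panel member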
[25] = molecular target: Macrophage colony-stimulating factor 1 receptor (Homo sapiens, UniProt P07333); type: functional;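 further: value comes from the Navigating the Kinome screening panel, CSF1R member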

Chain of Vascular endothelial growth factor receptor 1 (P17948 whole entry): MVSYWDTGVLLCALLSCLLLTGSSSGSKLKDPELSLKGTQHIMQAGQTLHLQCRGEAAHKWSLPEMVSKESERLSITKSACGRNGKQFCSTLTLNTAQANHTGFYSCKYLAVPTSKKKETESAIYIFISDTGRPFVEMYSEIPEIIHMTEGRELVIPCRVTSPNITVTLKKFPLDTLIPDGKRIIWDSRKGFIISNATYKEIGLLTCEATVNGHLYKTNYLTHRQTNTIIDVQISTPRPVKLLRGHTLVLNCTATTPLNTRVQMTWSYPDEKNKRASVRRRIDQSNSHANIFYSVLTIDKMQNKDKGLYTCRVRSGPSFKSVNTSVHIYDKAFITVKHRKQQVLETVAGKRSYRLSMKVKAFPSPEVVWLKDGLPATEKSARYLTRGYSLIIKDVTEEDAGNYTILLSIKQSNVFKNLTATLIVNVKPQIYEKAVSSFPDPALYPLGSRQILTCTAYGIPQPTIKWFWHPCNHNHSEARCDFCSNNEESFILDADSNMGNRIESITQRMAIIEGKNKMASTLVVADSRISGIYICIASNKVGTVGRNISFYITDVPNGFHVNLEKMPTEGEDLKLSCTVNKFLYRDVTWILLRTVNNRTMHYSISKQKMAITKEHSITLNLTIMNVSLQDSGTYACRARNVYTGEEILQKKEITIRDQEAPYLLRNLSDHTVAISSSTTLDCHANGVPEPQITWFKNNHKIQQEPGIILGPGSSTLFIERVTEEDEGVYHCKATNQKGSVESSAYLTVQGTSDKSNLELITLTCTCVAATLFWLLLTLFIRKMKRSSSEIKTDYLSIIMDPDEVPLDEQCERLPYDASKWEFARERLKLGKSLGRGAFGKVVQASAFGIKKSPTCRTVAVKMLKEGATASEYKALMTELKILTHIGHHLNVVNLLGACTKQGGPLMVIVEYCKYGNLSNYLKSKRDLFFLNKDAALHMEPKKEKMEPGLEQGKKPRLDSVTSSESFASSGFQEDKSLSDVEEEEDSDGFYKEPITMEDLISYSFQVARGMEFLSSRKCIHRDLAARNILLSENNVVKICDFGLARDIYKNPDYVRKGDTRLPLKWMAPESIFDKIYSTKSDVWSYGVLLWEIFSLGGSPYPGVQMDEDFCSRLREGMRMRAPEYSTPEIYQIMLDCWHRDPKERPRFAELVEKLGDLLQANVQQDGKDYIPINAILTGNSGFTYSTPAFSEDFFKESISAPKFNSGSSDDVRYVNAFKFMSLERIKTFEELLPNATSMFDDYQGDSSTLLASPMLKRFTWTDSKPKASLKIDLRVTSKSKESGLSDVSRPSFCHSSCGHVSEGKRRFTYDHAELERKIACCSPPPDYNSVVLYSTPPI
Chain of Sphingosine 1-phosphate receptor 4 (O95977 whole entry): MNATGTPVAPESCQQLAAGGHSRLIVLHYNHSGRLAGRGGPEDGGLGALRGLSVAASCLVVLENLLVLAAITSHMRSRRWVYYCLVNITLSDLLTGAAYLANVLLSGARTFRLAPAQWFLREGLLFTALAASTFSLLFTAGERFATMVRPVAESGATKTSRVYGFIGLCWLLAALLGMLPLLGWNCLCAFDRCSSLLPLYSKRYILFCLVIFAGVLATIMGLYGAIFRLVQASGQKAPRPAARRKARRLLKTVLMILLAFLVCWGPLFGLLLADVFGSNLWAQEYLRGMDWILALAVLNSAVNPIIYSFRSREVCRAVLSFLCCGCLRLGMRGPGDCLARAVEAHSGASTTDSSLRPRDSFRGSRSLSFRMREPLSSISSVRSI
Chain of Receptor-type tyrosine-protein kinase FLT3 (P36888 whole entry): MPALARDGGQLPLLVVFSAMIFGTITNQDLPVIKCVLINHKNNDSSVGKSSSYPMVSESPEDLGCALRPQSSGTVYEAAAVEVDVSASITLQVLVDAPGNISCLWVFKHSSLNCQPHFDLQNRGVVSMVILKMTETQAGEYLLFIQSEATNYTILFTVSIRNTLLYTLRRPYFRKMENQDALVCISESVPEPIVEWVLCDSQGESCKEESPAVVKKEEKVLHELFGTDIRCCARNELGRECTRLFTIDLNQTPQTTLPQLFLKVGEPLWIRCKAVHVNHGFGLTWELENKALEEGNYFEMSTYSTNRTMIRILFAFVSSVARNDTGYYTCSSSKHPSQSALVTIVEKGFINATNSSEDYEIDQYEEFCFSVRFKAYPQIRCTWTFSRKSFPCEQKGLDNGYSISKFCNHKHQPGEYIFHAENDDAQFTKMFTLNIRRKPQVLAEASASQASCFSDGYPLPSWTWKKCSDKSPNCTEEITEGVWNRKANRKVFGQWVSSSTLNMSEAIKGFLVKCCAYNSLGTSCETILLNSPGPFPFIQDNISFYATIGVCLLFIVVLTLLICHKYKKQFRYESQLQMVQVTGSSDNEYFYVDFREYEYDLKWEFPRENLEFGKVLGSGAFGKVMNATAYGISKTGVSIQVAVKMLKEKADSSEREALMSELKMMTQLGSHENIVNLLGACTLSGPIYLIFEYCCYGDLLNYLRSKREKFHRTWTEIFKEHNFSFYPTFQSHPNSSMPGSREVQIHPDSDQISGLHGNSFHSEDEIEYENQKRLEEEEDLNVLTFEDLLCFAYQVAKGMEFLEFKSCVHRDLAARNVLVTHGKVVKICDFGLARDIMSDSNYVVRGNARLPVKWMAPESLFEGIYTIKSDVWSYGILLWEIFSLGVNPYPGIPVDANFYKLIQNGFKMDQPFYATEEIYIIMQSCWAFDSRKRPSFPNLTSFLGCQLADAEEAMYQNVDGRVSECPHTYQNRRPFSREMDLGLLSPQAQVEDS
Chain of Mast/stem cell growth factor receptor Kit (P10721 whole entry): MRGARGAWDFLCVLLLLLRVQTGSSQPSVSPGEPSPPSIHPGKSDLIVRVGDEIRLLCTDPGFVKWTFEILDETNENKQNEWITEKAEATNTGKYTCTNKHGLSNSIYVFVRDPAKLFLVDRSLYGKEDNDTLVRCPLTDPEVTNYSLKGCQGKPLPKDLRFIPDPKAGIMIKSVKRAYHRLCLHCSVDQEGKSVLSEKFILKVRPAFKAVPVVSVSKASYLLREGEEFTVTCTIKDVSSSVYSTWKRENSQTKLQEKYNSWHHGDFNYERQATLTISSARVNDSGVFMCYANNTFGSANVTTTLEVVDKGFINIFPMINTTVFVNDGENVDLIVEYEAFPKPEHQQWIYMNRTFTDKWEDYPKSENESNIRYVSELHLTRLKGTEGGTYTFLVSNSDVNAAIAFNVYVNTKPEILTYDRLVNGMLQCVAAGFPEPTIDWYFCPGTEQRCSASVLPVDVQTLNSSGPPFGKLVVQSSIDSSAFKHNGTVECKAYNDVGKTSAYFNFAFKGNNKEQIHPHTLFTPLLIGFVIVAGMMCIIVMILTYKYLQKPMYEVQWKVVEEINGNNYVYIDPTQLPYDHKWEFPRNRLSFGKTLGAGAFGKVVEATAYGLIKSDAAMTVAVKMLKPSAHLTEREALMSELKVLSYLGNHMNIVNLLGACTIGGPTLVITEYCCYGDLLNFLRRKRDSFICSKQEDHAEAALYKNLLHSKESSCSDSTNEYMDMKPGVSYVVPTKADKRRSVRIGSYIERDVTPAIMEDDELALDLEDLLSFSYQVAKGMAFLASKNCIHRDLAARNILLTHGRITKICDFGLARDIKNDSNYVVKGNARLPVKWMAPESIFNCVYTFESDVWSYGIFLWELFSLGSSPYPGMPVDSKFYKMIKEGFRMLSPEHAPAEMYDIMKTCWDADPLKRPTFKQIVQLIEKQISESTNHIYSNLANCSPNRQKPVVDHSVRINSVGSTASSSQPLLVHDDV
Chain of Tyrosine-protein kinase Lyn (P07948 whole entry): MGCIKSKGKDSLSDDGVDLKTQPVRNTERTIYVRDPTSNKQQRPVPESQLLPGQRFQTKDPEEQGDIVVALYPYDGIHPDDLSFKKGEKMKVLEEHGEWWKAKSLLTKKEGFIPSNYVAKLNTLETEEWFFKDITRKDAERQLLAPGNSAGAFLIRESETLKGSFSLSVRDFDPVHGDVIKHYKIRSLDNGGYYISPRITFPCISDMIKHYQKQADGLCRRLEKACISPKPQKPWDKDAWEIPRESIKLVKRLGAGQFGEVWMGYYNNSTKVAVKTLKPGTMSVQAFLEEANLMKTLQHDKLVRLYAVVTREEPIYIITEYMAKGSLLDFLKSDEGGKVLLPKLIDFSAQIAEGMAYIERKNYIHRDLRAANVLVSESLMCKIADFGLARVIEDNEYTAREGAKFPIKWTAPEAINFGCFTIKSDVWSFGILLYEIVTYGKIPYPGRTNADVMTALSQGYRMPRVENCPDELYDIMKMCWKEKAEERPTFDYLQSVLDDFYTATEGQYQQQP
Chain of Mu-type opioid receptor (P35372 whole entry): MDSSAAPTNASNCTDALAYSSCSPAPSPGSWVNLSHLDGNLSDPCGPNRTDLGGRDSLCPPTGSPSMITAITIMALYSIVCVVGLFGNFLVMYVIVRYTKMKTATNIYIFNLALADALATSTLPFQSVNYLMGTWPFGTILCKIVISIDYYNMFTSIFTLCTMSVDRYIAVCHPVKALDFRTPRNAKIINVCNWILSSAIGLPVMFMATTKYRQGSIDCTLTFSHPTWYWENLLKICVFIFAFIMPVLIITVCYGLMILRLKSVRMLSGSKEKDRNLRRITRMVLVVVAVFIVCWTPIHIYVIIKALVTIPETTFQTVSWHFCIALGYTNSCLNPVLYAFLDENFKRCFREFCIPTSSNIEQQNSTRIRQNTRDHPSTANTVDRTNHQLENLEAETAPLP
Chain of Sphingosine 1-phosphate receptor 2 (O95136 whole entry): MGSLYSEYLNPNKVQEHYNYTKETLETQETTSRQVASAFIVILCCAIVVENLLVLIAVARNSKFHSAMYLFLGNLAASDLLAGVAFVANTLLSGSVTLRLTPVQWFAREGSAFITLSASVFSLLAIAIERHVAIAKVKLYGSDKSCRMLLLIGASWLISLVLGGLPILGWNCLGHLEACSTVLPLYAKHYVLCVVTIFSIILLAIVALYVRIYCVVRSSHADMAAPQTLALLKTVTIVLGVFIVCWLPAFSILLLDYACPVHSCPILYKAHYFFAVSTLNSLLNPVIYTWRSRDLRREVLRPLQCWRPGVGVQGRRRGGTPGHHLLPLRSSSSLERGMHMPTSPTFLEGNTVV

O=C(CSc1nc(O)c2ccccc2n1)NCc1ccc(Cl)cc1
active: CC50 [1] > 100000 nM | CC50 [2] > 100000 nM | CC50 [3] > 100000 nM | CC50 [4] > 100000 nM

COc1ccc(CN2CCc3c([nH]c4ccccc34)C2)c(OC)c1C
inactive: EC50 [5] 74300 nM | EC50 [6] > 30800 nM | EC50 [7] 47600 nM
active: EC50 [8] 8400 nM | AC50 [9] 1680 nM

COc1cc(-c2oc3cc(O)cc(O)c3c(=O)c2O[C@@H]2O[C@H](COC3O[C@@H](C)[C@H](O)[C@@H](O)[C@H]3O)[C@@H](O)[C@H](O)[C@H]2O)ccc1O (stereo not given in full)
active: AC50 [10] 4620 nM | AC50 [11] 7960 nM

CC1CCCCC1N(C(=O)c1cc(C2CC2)on1)C1CCCCC1C (stereo not given)
inactive: EC50 [12] > 50000 nM | EC50 [13] > 50000 nM

Nc1n[nH]c2cccc(-c3ccc(NC(=O)Nc4cccc(C(F)(F)F)c4)c(F)c3)c12
active: Ki [14] 200 nM | Ki [15] 2.51 nM | Ki [16] 39.8 nM | Ki [17] 251 nM | Ki [18] 158 nM | Ki [19] 3.16 nM | Ki [20] 316 nM | Ki [21] 0.794 nM | Ki [22] 3.16 nM | Ki [23] 100 nM | Ki [24] 0.316 nM | Ki [25] 3.16 nM
